# Results: article PMC5131915, “Platinum(II) Iodido Complexes of 7-Azaindoles with Significant Antiproliferative Effects: An Old Story Revisited with Unexpected Outcomes” (PLoS ONE, 2016)
# How the values were obtained:
# [1] = system: HeLa cervix carcinoma cells; assay: In vitro cytotoxicity testing (MTT assay), HeLa; type: cell-based, human; details: 24 h drug exposure, no recovery, read-out: IC50±SD, HeLa
# Procedure: (§1) A2780 ovarian carcinoma, A2780R cisplatin-resistant ovarian carcinoma, HOS osteosarcoma, G361 malignant melanoma, MCF7 breast carcinoma, A549 lung carcinoma, HeLa cervix carcinoma, 22Rv1 prostate carcinoma and Caco-2 colorectal carcinoma human cancer cell lines were purchased from the European Collection of Cell Cultures (ECACC), while the human non-cancerous hepatocytes (Hep) were supplied by Biopredic Intl. The cell lines were cultured, according to the suppliers`instructions, in RPMI-1640 medium supplemented with 10% of fetal calf serum, 1% of 2 mM glutamine, and 1% penicillin/streptomycin. All cell lines were grown as adherent monolayers at 37°C and 5% CO2 in a humidified atmosphere.
# (§2) The cells were seeded to 96-well culture plates, pre-incubated in drug-free media at 37°C for 24 h and treated typically with the 0.01–50.0 μM solutions, prepared from the stock solutions by dilution with medium, for 24 h at 37°C. […] In parallel with compounds 1–8 and the reference drugs, the cells were also treated with vehicle (0.1% DMF in medium; negative control) and Triton X-100 (1%; positive control) to assess the minimal and maximal cell damage, respectively. The MTT assay was used to determine the cell viability; MTT = 3-(4,5-dimethylthiazol-2-yl)-2,5-diphenyltetrazolium bromide. A concentration of the formed dye was evaluated spectrophotometrically at 540 nm (TECAN, Schoeller Instruments LLC).
# (§3) The data were expressed as the percentage of viability, where 100% and 0% represents the treatments with negative and positive controls, respectively. The data from the cancer cells were acquired from three independent experiments (conducted in triplicate) using cells from different passages. The resulting IC50 values (μM) were calculated from viability curves and the results are presented as arithmetic mean±SD.
# [2] = system: L1210 mouse lymphocytic leukaemia cells; assay: In vivo antitumour activity testing, L1210 lymphocytic leukaemia model; set-up: species or system mice; details: i.p.; for percentage of mean survival time T/C / mean survival time ± SD / tolerability / signs of toxicity (e.g. weight loss): dose equimolar to cisplatin 2 mg/kg; for mean survival time ± SD: 10 days after implantation, control 17.4±1.6 days
# Procedure: The experimental animals used for in vivo antitumour testing were female DBA/2 SPF mice obtained from Charles Rivers Laboratories. The animals were housed in the Sealsafe NEXT—IVC Blue Line Housing System (Tecniplast, Italy) to ensure the best possible experimental conditions and eliminate the risk of possible intergroup cross-contamination, and kept in Plexiglas cages at constant temperature (22±1°C) and relative humidity of 55±5% for one-week adaptation period before the start of the experiment. All experimental procedures were performed according to the National Institute of Health (NIH) Guide for the Care and Use of Laboratory Animals. The protocol was approved by the Expert Committee on the Protection of Animals Against Cruelty at the University of Veterinary and Pharmaceutical Sciences Brno (Permit Number: 71/2013). The number of pharmacological interventions was limited to the necessary minimum in order to minimize the suffering of animals, which were observed regularly for the symptoms connected with the tumour progression. […] No animals had to be sacrificed due to the above mentioned criteria of humane treatment and no post-application deaths within the 2 hours after the application were observed during the experiment. […] The animal tissues for the ex vivo experiments and histological evaluations were taken post mortem, in case of surviving animals immediately after they were sacrificed by the lethal dose of carbon dioxide inhalation, immediately followed by the cervical dislocation.
# The animals were monitored several times a day for the signs of tumour progression and distress development.
# [3] = system: caspase 3 (Cas-3), active form p17; assay: Ex vivo Western blot of tumour tissues, cleaved caspase 3; type: in vivo, mice; details: pooled tumour samples
# Procedure: Frozen tumour samples were homogenized by a bench blender IKA DI25 (IKA-Werke, Germany) in the presence of a lysis buffer [cOmplete Protease Inhibitor Cocktail (Roche, Germany), 50 mM Tris-HCl pH 7.5, 1 mM EGTA, 1 mM EDTA, 1 mM sodium orthovanadate, 50 mM sodium fluoride, 5 mM sodium pyrophosphate, 270 mM sucrose, 0.5% (v/v) Triton X-100]. Subsequently, the blended samples were centrifuged at 9.000 g at 4°C for 15 min. The supernatants were collected and the protein concentration was measured by the Brandford’s method using the Brandford reagent (Amresco, USA) according to the manufacturer’s manual. The measured samples were stored at -80°C for the following experiments.
# The expression of caspase 3, MCL-1, p53, and β-actin as loading control were evaluated by Western blot analysis and immunodetection. Lysates were mixed with a denaturing loading dye [250 mM Tris-HCl pH 6.8, 5% (v/v) β-mercaptoethanol, 10% (w/v) sodium dodecyl sulfate, 30% (v/v) glycerol, 0.04% (w/v) bromophenol blue], heated for 5 min at 70°C. […] The final protein amount was 50 μg per well. After protein separation in the gel, they were transferred on the Immun-Blot polyvinylidene difluoride membrane 0.2 μm (Bio-Rad, USA). Then, the membrane was blocked by 5% (w/v) BSA in TBST [10 mM Tris-HCl pH 7.5, 150 mM NaCl, 0.1% (v/v) Tween-20]. […] HRP was detected by Clarity Western ECL Substrate (Bio-Rad, USA) using chemiluminescent documentation system Syngene PXi-4 (UK).
# pUC19 plasmid dsDNA = assay: Gel electrophoresis studies of interaction with pUC19 plasmid dsDNA; set-up: species or system Escherichia coli; details: 37°C, 24 h; for effect on electrophoretic mobility of pUC19 forms (SC, OC, L): 0.23-2.30 μM
# Procedure: Supercoiled pUC19 plasmid dsDNA (2686 bp, 1750 kDa) was isolated from Escherichia coli TOP10F’ by QIAprep Spin Miniprep Kit (Qiagen, Germany). The concentration and purity of the isolated plasmid DNA were evaluated spectrophotometrically. Plasmid was dissolved in nuclease-free water and stored at –20°C.
# 2 μL of these solutions were added to 18 μL of the pUC19 plasmid DNA water solution (300 ng per reaction, corresponding to a concentration of 23 μM calculated for the base pairs) and the mixture was left to react in the final 10% DMF/90% water solution containing the final concentrations of the complexes of 2.30, 1.15 and 0.23 μM, corresponding to 0.10, 0.05 and 0.01 metal-to-base pair stoichiometry. In parallel, the experiment was performed on plasmid DNA in the 10% DMF/90% water solution and in water. The reaction mixtures were incubated at 37°C for 24 h. An electrophoretic mobility was evaluated by gel electrophoresis ([…], 3 h) performed on a 0.8% (w/v) agarose gel containing EtBr (2.0 mg/L (w/v)) at ambient temperature in Tris-acetate/EDTA buffer. The bands on the obtained electrophoretogram were detected by an MUV21-CP-02 gel scanner (Major Science) and analysed with AlphaEaseFC software (version 4.0.0.34, Alpha Innotech) in order to evaluate the relative percentages of the SC, OC and L forms. Each experiment was performed in triplicate.
# MCF7 cells = assay: Cell cycle analysis (PI/RNase, flow cytometry), MCF7; type: cell-based, human; details: MCF7, 24 h, IC50 concentration
# Procedure: The A2780 and MCF7 cells (1.0 × 10^6 per well) were pre-incubated in a six-well plate for 24 h as described above. […] After 24 h, floating cells were collected and attached cells were harvested using trypsin/EDTA in PBS. Total cells were washed twice with PBS and fixed in 70% ethanol. Cells were re-suspended in PBS and DNA staining was achieved by a solution of propidium iodide (PI) supplemented with RNase A (30 min, 25°C, in the dark). […] The data were analysed using CytExpert™ software (Beckman Coulter).
# [4] = system: G361 malignant melanoma cells; assay: In vitro cytotoxicity testing (MTT assay), G361; type: cell-based, human; details: 24 h drug exposure, no recovery, read-out: IC50±SD, G361
# Procedure: as §1, §2, §3
# HOS osteosarcoma cells = assay: In vitro cytotoxicity testing (MTT assay), HOS; type: cell-based, human; details: for IC50: 24 h drug exposure, no recovery, MTT, read-out: IC50±SD, HOS; for selectivity factor IC50(Hep)/IC50(cancer cell line): HOS; for times more potent than cisplatin: HOS cell line
# Procedure: as §1, §2, §3
# [5] = system: 22Rv1 prostate carcinoma cells; assay: In vitro cytotoxicity testing (MTT assay), 22Rv1; type: cell-based, human; details: 24 h drug exposure, no recovery, read-out: IC50±SD, 22Rv1
# Procedure: as §1, §2, §3
# [6] = system: spleen, renal tissue and tumour tissues of L1210 leukaemia-bearing mice; assay: Histological observations (light microscopy, semi-quantitative); details: relative scale 0 to 4
# From the text: Randomly selected paraffin block preparations were stained by standard hematoxylin and eosin stain for light microscopic evaluation. Due to high cellularity, the semi-quantitative method was used for the evaluation of necrosis in well-circumcised and diffuse tumour samples and PMN cells infiltration in normal tissues as an indirect sign of toxicity to healthy tissues. The evaluation of necrotic processes and infiltration by PMN cells was semi-quantitative, based on the percentage of necrotic areas and/or infiltrated area in the view-field of at least three different samples.
# [7] = system: human non-cancerous hepatocytes (Hep); assay: In vitro cytotoxicity testing (MTT assay), hepatocytes; type: cell-based; details: 24 h drug exposure, no recovery
# Procedure: as §1, §2, §3
# [8] = system: A2780R cisplatin-resistant ovarian carcinoma cells; assay: In vitro cytotoxicity testing (MTT assay), A2780R; type: cell-based, human; details: for IC50: 24 h drug exposure, no recovery, MTT, read-out: IC50±SD, A2780R; for resistance factor (RF), IC50(A2780R)/IC50(A2780): 24 h IC50 values
# Procedure: All cell lines were grown as adherent monolayers at 37°C and 5% CO2 in a humidified atmosphere.
# The MTT assay was used to determine the cell viability; MTT = 3-(4,5-dimethylthiazol-2-yl)-2,5-diphenyltetrazolium bromide. A concentration of the formed dye was evaluated spectrophotometrically at 540 nm (TECAN, Schoeller Instruments LLC).
# as §3
Compound,IC50 [1] [µM],percentage of mean survival time T/C [2] [%],mean survival time ± SD [2] [days],level of active form of Cas-3 in tumour tissue [3],"effect on electrophoretic mobility of pUC19 forms (SC, OC, L) (pUC19 plasmid dsDNA)",G0/G1 population (MCF7 cells) [%],G2/M population (MCF7 cells) [%],S population (MCF7 cells) [%],sub-G1 population (MCF7 cells) [%],IC50 [4] [µM],IC50 (HOS osteosarcoma cells) [µM],IC50 [5] [µM],Areas of necrosis in tumour tissues [6],Infiltration of renal tissues (PMN cells) [6],Infiltration of spleen (PMN cells) [6],IC50 [7] [µM],IC50 [8] [µM],tolerability / signs of toxicity (e.g. weight loss) [2],selectivity factor IC50(Hep)/IC50(cancer cell line) (HOS osteosarcoma cells),times more potent than cisplatin (HOS osteosarcoma cells) [times],other results
"N.N.[Cl][Pt][Cl] [Cisplatin, cisplatin, reference compound]",30.4 ± 11,108,18.8 ± 2.4,has not been observed,increase the electrophoretic mobility,33.4±2.8,38.2±1.9,26.3±1.9,1.6±0.2,5.3 ± 0.7,18.9 ± 1.7,26.9 ± 3.5,3 (3 = up to 75%),1 (1 = up to 25%),1 (1 = up to 25%),> 75,> 50,,,,maximum tolerated dose ([2]; mice): 2 mg/kg
"Brc1cc[n+]([Pt-2]([I])([I])[n+]2ccc(Br)c3cc[nH]c32)c2[nH]ccc12 [Complex 6, cis-[Pt(4Braza)2I2]]",3.8 ± 0.2,99,17.3 ± 2.1,has not been observed,did not significantly change the mobility,73.9±4.6,16.6±2.1,7.2±1.6,1.5±0.4,3.2 ± 0.2,0.4 ± 0.1,3.8 ± 0.1,1–2,1 (1 = up to 25%),2 (2 = up to 50%),4.1,3.3 ± 0.4,well-tolerated,~10,≤ 47,"resistance factor (RF), IC50(A2780R)/IC50(A2780) [8]: 1.03"
"Cc1cc2c(Cl)cc[n+]([Pt-2]([I])([I])[n+]3ccc(Cl)c4cc(C)[nH]c43)c2[nH]1 [Complex 8, cis-[PtI2(2Me4Claza)2]]",3.8 ± 0.1,109,19.0 ± 2.4,dramatically increased,did not significantly change the mobility,64.5±3.3,25.4±2.6,8.9±2.1,1.2±0.4,1.7 ± 1.3,0.7 ± 0.2,3.5 ± 0.2,3 (3 = up to 75%),0–1,1–2,9.5,1 ± 0.4,well-tolerated,~14,≤ 47,"amount of damaged OC and linear (L) forms of pUC19 DNA (pUC19 plasmid dsDNA; concentration-dependent): visibly increased; resistance factor (RF), IC50(A2780R)/IC50(A2780) [8]: 0.59"
